The values that follow come from patent publication US20260216170A1, “TETRAHYDROISOQUINOLINE HETEROBIFUNCTIONAL BCL-XL DEGRADERS” (Treeline Biosciences, Inc., priority 2023, published 2026).

This assay addresses T1, Human BCL-XL protein (N-terminal HiBiT tagged BCL-XL expressed in HT1080 cells) (Homo sapiens, UniProt Q07817).
T1 construct: expressed in transfected cells; host or cells: HT-1080 (ATCC CCL-121), stably transduced with lentivirus pLV-UBC-N-HiBiT-BCL-XL-PGK-puro and selected with puromycin
Briefly: HiBiT Based Degradation Assay. Type of assay: cell-based. The note with it: 24 hours incubation; for DC50: BCL-XL degradation, HT1080 cells expressing N-HiBiT-BCL-XL, normalized with DMSO control, geometric mean for multiple data points, read-out: EC50 (24 h); for Ymin (24 h): bottom of BCL-XL degradation curve (remaining HiBiT-BCL-XL signal vs DMSO control), HT1080 cells. In a few lines: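 BCL-XL degradation was read as Nano-Glo HiBiT lytic luminescence relative to DMSO after a 24 h compound treatment of HT1080 cells carrying stably integrated N-HiBiT-BCL-XL. EC50 values come from four-parameter logistic curves, with the hook-curve minimum fixed as bottom, and are geometric means where tested repeatedly.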
A general note: The HiBiT peptide binds its large partner to form an active luciferase.

T1 sequence (Q07817 whole entry): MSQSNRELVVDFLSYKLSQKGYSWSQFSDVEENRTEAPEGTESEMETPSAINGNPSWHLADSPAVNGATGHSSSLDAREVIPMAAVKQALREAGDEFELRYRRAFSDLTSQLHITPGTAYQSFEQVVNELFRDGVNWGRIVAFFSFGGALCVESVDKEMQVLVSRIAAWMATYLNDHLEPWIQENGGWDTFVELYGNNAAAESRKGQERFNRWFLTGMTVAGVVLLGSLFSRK

Take `Cc1cc(OCCCCC2CCN(CC(=O)Nc3ccc4c(C5CCC(=O)NC5=O)nn(C)c4c3)CC2)ccc1-c1ccc(N2CCc3cccc(C(=O)Nc4nc5ccccc5s4)c3C2)nc1C(=O)O` (centres unmarked) [Compound 116, 6-[8-(1,3-benzothiazol-2-ylcarbamoyl)-3,4-dihydro-1H-isoquinolin-2-yl]-3-[4-[4-[1-[2-[[3-(2,6-dioxo-3-piperidyl)-1-methyl-indazol-6-yl]amino]-2-oxo-ethyl]-4-piperidyl]butoxy]-2-methyl-phenyl]pyridine-2-carboxylic acid]: the DC50 is below 0.01 µM and the “Ymin (24 h)” value is listed as “B (30% ≤ Ymin < 50%)”.

With `Cc1c(OCC2CC3(CCN(CC(=O)Nc4ccc5c(C6CCC(=O)NC6=O)nn(C)c5c4C(F)(F)F)CC3)C2)cccc1-c1ccc(N2CCc3cccc(C(=O)Nc4nc5ccccc5s4)c3C2)nc1C(=O)O` (centres unmarked) [Compound 137], the DC50 was in the range of 0.01 to 0.1 µM and the “Ymin (24 h)” value was “C (50% ≤ Ymin < 70%)”.

Turning to `Cc1c(OCC2CC3(CCN(CCOc4ccc5c(C6CCC(=O)NC6=O)nn(C)c5c4)CC3)C2)cccc1-c1ccc(N2CCc3cccc(C(=O)Nc4nc5ccccc5s4)c3C2)nc1C(=O)O` (centres unmarked) [Compound 152, 6-(8-(benzo[d]thiazol-2-ylcarbamoyl)-3,4-dihydroisoquinolin-2(1H)-yl)-3-(3-((7-(2-((3-(2,6-dioxopiperidin-3-yl)-1-methyl-1H-indazol-6-yl)oxy)ethyl)-7-azaspiro[3.5]nonan-2-yl)methoxy)-2-methylphenyl)picolinic acid], the DC50 was below 0.01 µM and the “Ymin (24 h)” value is listed as “B (30% ≤ Ymin < 50%)”.

With `Cc1cc(OCC2CC3(CCN(CC(=O)Nc4ccc5c(C6CCC(=O)NC6=O)nn(C)c5c4C)CC3)C2)ccc1-c1ccc(N2CCc3cccc(C(=O)Nc4nc5ccccc5s4)c3C2)nc1C(=O)O` (centres unmarked) [Compound 124, 6-(8-(benzo[d]thiazol-2-ylcarbamoyl)-3,4-dihydroisoquinolin-2(1H)-yl)-3-(4-((7-(2-((3-(2,6-dioxopiperidin-3-yl)-1,7-dimethyl-1H-indazol-6-yl)amino)-2-oxoethyl)-7-azaspiro[3.5]nonan-2-yl)methoxy)-2-methylphenyl)picolinic acid], the DC50 is below 0.01 µM and the “Ymin (24 h)” value is “B (30% ≤ Ymin < 50%)”.

With `Cc1cc2c(C3CCC(=O)NC3=O)nn(C)c2cc1NC(=O)CN1CCC2(CC1)CC(COc1cccc(-c3ccc(N4CCc5cccc(C(=O)Nc6nc7ccccc7s6)c5C4)nc3C(=O)O)c1C)C2` (centres unmarked) [Compound 118], the DC50 was in the range of 0.1 to 1 µM and the “Ymin (24 h)” value is recorded as “B (30% ≤ Ymin < 50%)”.

In the case of `COc1c(NC(=O)CN2CCC(CCCOc3ccc(-c4ccc(N5CCc6cccc(C(=O)Nc7nc8ccccc8s7)c6C5)nc4C(=O)O)c(C(F)(F)F)c3)CC2)ccc2c(C3CCC(=O)NC3=O)nn(C)c12` (centres unmarked) [Compound 142], the DC50 fell in the range of 0.01 to 0.1 µM and the “Ymin (24 h)” value was “A (Ymin < 30%)”.

On to `Cn1nc(C2CCC(=O)NC2=O)c2ccc(NC(=O)CN3CCC(CCCOc4ccc(-c5ccc(N6CCc7cccc(C(=O)Nc8nc9ccccc9s8)c7C6)nc5C(=O)O)c(C(F)(F)F)c4)CC3)nc21` (centres unmarked) [Compound 146], for which the DC50 is 0.01 to 0.1 µM and the “Ymin (24 h)” value is “B (30% ≤ Ymin < 50%)”.

`Cc1c(OC[C@H]2C[C@H]2CC2CCN(CC(=O)Nc3ccc4c(C5CCC(=O)NC5=O)nn(C)c4c3)CC2)cccc1-c1ccc(N2CCc3cccc(C(=O)Nc4nc5ccccc5s4)c3C2)nc1C(=O)O` (single isomer, unassigned) [Compound 1004d]: the DC50 fell in the range of 0.01 to 0.1 µM and the “Ymin (24 h)” value was “B (30% ≤ Ymin < 50%)”.

Regarding `Cn1nc(C2CCC(=O)NC2=O)c2ccc(NC(=O)CN3CCC4(CC3)CC(COc3cccc(-c5ccc(N6CCc7ccnc(C(=O)Nc8nc9ccccc9s8)c7C6)nc5C(=O)O)c3C(F)(F)F)C4)cc21` (centres unmarked) [Compound 161, 6-[8-(1,3-benzothiazol-2-ylcarbamoyl)-3,4-dihydro-1H-2,7-naphthyridin-2-yl]-3-[3-[[7-[2-[[3-(2,6-dioxo-3-piperidyl)-1-methyl-indazol-6-yl]amino]-2-oxo-ethyl]-7-azaspiro[3.5]nonan-2-yl]methoxy]-2-(trifluoromethyl)phenyl]pyridine-2-carboxylic acid], the DC50 lay within 0.01 to 0.1 µM and the “Ymin (24 h)” value is on record as “B (30% ≤ Ymin < 50%)”.

Turning to `Cn1nc(C2CCC(=O)NC2=O)c2ccc(NC(=O)CN3CCC4(CC3)CC(Oc3ccc(-c5ccc(N6CCc7ccnc(C(=O)Nc8nc9ccccc9s8)c7C6)nc5C(=O)O)c(C(F)(F)F)c3)C4)c(F)c21` (centres unmarked) [Compound 203], the DC50 lay in the range of 0.01 to 0.1 µM and the “Ymin (24 h)” value is “B (30% ≤ Ymin < 50%)”.

Consider `C[C@H](CCC1CCN(CC(=O)Nc2ccc3c(C4CCC(=O)NC4=O)nn(C)c3c2)CC1)Oc1ccc(-c2ccc(N3CCc4cccc(C(=O)Nc5nc6ccccc6s5)c4C3)nc2C(=O)O)c(C(F)(F)F)c1` (single isomer, unassigned) [Compound 138b], for which the DC50 was in the range of 0.01 to 0.1 µM and the “Ymin (24 h)” value is given as “B (30% ≤ Ymin < 50%)”.

Regarding `COc1cc2c(C3CCC(=O)NC3=O)nn(C)c2cc1NC(=O)CN1CCC(CCCOc2ccc(-c3ccc(N4CCc5cccc(C(=O)Nc6nc7ccccc7s6)c5C4)nc3C(=O)O)c(C)c2)CC1` (centres unmarked) [Compound 103, 6-[8-(1,3-benzothiazol-2-ylcarbamoyl)-3,4-dihydro-1H-isoquinolin-2-yl]-3-[4-[3-[1-[2-[[3-(2,6-dioxo-3-piperidyl)-5-methoxy-1-methyl-indazol-6-yl]amino]-2-oxo-ethyl]-4-piperidyl]propoxy]-2-methyl-phenyl]pyridine-2-carboxylic acid], the DC50 was in the range of 0.1 to 1 µM and the “Ymin (24 h)” value is reported as “B (30% ≤ Ymin < 50%)”.

Turning to `Cc1cc(OC[C@H]2C[C@@H]2CC2CCN(CC(=O)Nc3ccc4c(C5CCC(=O)NC5=O)nn(C)c4c3)CC2)ccc1-c1ccc(N2CCc3cccc(C(=O)Nc4nc5ccccc5s4)c3C2)nc1C(=O)O` (single isomer, unassigned) [Compound 1002a], the DC50 is below 0.01 µM and the “Ymin (24 h)” value was “B (30% ≤ Ymin < 50%)”.

Take `Cc1c(OC2CCC3(CC2)CCN(CC(=O)Nc2ccc4c(C5CCC(=O)NC5=O)nn(C)c4c2)CC3)cccc1-c1ccc(N2CCc3cccc(C(=O)Nc4nc5ccccc5s4)c3C2)nc1C(=O)O` (centres unmarked) [Compound 119]: the DC50 is below 0.01 µM and the “Ymin (24 h)” value is recorded as “B (30% ≤ Ymin < 50%)”.

On to `Cn1nc(C2CCC(=O)NC2=O)c2ccc(NC(=O)CN3CCC4(CC3)CC(Oc3ccc(-c5ccc(N6CCc7cccc(C(=O)Nc8nc9ccccc9s8)c7C6)nc5C(=O)O)c(C(F)(F)F)c3)C4)nc21` (centres unmarked) [Compound 193], for which the DC50 was in the range of 0.01 to 0.1 µM and the “Ymin (24 h)” value is “B (30% ≤ Ymin < 50%)”.

With `Cn1nc(C2CCC(=O)NC2=O)c2ccc(NC(=O)CN3CCC4(CC3)CC(Oc3cccc(-c5ccc(N6CCc7ccnc(C(=O)Nc8nc9ccccc9s8)c7C6)nc5C(=O)O)c3C(F)(F)F)C4)c(F)c21` (centres unmarked) [Compound 214], the DC50 is below 0.01 µM and the “Ymin (24 h)” value is given as “B (30% ≤ Ymin < 50%)”.

`COc1c(NC(=O)CN2CCC3(CC2)CC(COc2ccc(-c4ccc(N5CCc6cccc(C(=O)Nc7nc8ccccc8s7)c6C5)nc4C(=O)O)c(C(F)(F)F)c2)C3)ccc2c(C3CCC(=O)NC3=O)nn(C)c12` (centres unmarked) [Compound 144, 6-(8-(benzo[d]thiazol-2-ylcarbamoyl)-3,4-dihydroisoquinolin-2(1H)-yl)-3-(4-((7-(2-((3-(2,6-dioxopiperidin-3-yl)-7-methoxy-1-methyl-1H-indazol-6-yl)amino)-2-oxoethyl)-7-azaspiro[3.5]nonan-2-yl)methoxy)-2-(trifluoromethyl)phenyl)picolinic acid]: the DC50 lay within 0.01 to 0.1 µM and the “Ymin (24 h)” value is given as “B (30% ≤ Ymin < 50%)”.

As for `Cc1c(OCC2CC3(CCN(CC(=O)Nc4ccc5c(C6CCC(=O)NC6=O)nn(C)c5c4C)CC3)C2)cccc1-c1ccc(N2CCc3cccc(C(=O)Nc4nc5ccccc5s4)c3C2)nc1C(=O)O` (centres unmarked) [Compound 117], the DC50 was in the range of 0.01 to 0.1 µM and the “Ymin (24 h)” value was “B (30% ≤ Ymin < 50%)”.

Consider `C[C@@H](COc1ccc(-c2ccc(N3CCc4cccc(C(=O)Nc5nc6ccccc6s5)c4C3)nc2C(=O)O)c(C(F)(F)F)c1)CC1CCN(CC(=O)Nc2ccc3c(C4CCC(=O)NC4=O)nn(C)c3c2)CC1` (single isomer, unassigned) [Compound 130a], for which the DC50 is 0.01 to 0.1 µM and the “Ymin (24 h)” value is reported as “B (30% ≤ Ymin < 50%)”.

`COc1c(NC(=O)CN2CC[C@H](CCCOc3ccc(-c4ccc(N5CCc6cccc(C(=O)Nc7nc8ccccc8s7)c6C5)nc4C(=O)O)c(C)c3)C[C@H]2C)ccc2c(C3CCC(=O)NC3=O)nn(C)c12` (some centres unmarked) [Compound 210c]: the DC50 was below 0.01 µM and the “Ymin (24 h)” value is “A (Ymin < 30%)”.

Take `COc1c(NC(=O)CN2CCC(CCCOc3cccc(-c4ccc(N5CCc6cccc(C(=O)Nc7nc8ccccc8s7)c6C5)nc4C(=O)O)c3C)CC2)ccc2c(C3CCC(=O)NC3=O)nn(C)c12` (centres unmarked) [Compound 104, 6-[8-(1,3-benzothiazol-2-ylcarbamoyl)-3,4-dihydro-1H-isoquinolin-2-yl]-3-[3-[3-[1-[2-[[3-(2,6-dioxo-3-piperidyl)-7-methoxy-1-methyl-indazol-6-yl]amino]-2-oxo-ethyl]-4-piperidyl]propoxy]-2-methyl-phenyl]pyridine-2-carboxylic acid]: the DC50 lay in the range of 0.01 to 0.1 µM and the “Ymin (24 h)” value is “B (30% ≤ Ymin < 50%)”.

In the case of `Cc1cc(OCCCC2CCN(CC(=O)Nc3ccc4c(C5CCC(=O)NC5=O)nn(C)c4c3)CC2)ccc1-c1ccc(N2CCc3ccnc(C(=O)Nc4nc5ccccc5s4)c3C2)nc1C(=O)O` (centres unmarked) [Compound 141, 6-[8-(1,3-benzothiazol-2-ylcarbamoyl)-3,4-dihydro-1H-2,7-naphthyridin-2-yl]-3-[4-[3-[1-[2-[[3-(2,6-dioxo-3-piperidyl)-1-methyl-indazol-6-yl]amino]-2-oxo-ethyl]-4-piperidyl]propoxy]-2-methyl-phenyl]pyridine-2-carboxylic acid], the DC50 is below 0.01 µM and the “Ymin (24 h)” value was “A (Ymin < 30%)”.
